Source: patent US10792284B2, “Synergistic cancer treatment” (Memorial Sloan Kettering Cancer Center, priority 2015, dated 2020)
Entries after “also recorded” stand apart in the source; their conditions may differ.

Assays:
[1] = system: KRAS-mutant lung cancer cell lines; assay: Clonogenic assay; format: cell-based, human; details: for sensitization to trametinib (MEK inhibition) in combination: combined with trametinib, KRAS-mutant lung cancer cell lines
Protocol: All experiments were performed at least three times. Representative experiments are shown.

[2] = system: BRAF and KRAS-mutant cancers of multiple lineages; details: GDSC dataset; BRAF-mutant compared with KRAS-mutant tumor cells; cited from earlier work

Molecule	sensitization to trametinib (MEK inhibition) in combination [1]	sensitivity to MEK inhibitor (IC50), BRAF-mutant versus KRAS-mutant tumor cells [2]	also measured
O=C(Nc1ccc2[nH]nc(-c3ccncc3)c2c1)[C@@H]1CCN(CC(=O)N2CCN(c3ccc(-c4ncccn4)cc3)CC2)C1 [SCH772984]			effect of co-treatment on antiproliferative effects of Trametinib ([1]; co-treatment with Trametinib compared with Trametinib alone): enhances the antiproliferative effects of trametinib
AZD4547	comparable effects; also recorded: confer sensitivity to MEK inhibition		
COc1cc(F)c(F)c(Nc2ccc(I)cc2F)c1NS(=O)(=O)C1(C[C@H](O)CO)CC1 [RDEA119]		significantly more sensitive	
O=C(NOC[C@H](O)CO)c1ccc(F)c(F)c1Nc1ccc(I)cc1F [PD0325901]		significantly more sensitive	
COCC(=O)NC/C=C/c1ccc2ncnc(Nc3ccc(Oc4ccc(C)nc4)c(C)c3)c2c1 [CP724714]			synergy when combined with Trametinib ([1]; H23 cells, combined with Trametinib): no synergy
CCN1CCN(c2ccc(Nc3cc(N(C)C(=O)Nc4c(Cl)c(OC)cc(OC)c4Cl)ncn3)cc2)CC1 [BGJ398]	comparable effects; also recorded: confer sensitivity to MEK inhibition		
